Source: patent publication US7498406B2, “Substantially cell membrane impermeable compound and use thereof” (priority 1999, dated 2009)

Assays:
BVSM = test: Viability of cultured cells, 72 hr; type: cell-based, bovine; details: 5% BCS, 0 to 1 mM
Method: FIG. 19. Effect of GSAO on proliferation of non-endothelial cells. 15,000 BxPC-3 (part A), HT1080 (part B), 3T3 (part C) or BVSM (part D) cells per well were seeded into gelatinised 24-well culture plates and allowed to attach for 24 hr. The media was then replaced with DMEM containing 0 to 1 mM GSAO or GSAA and either 5% BCS (part D) or 5% FCS (parts A, B and C). Cells were cultured for 72 hr and then dispersed and counted. The dotted lines indicate the cell number in control wells containing DMEM and 2% BCS (part D) or 2% FCS (parts A, B and C) which represented no to limited proliferation. The data points and errors represent the mean and range of duplicate wells.
BCE (Folkman et al. 1979), BAE, BxPC-3 (ATCC, Bethesda, Md.), HT1080 (Jiang et al., 1999), 3T3 (ATCC, Bethesda, Md.) and BVSM (Hogg et al., 1997) cells were harvested and cultured as indicated. […] Cells were cultured for 0 to 72 hr in 10% CO2 at 37° C. then dispersed in trypsin/EDTA (GibcoBRL, Granc Island, N.Y.), resuspended in Coulter balanced electrolyte solution and counted with a Z1 Coulter counter (Coulter Corp., Miami, Fla.) in all experiments there were two control wells containing DMEM with 1% GPS and either 5% BCS for BCE cells, 2% BCS for BAE and BVSM cells, or 2% FCS for BxPC-3, HT1080 and 3T3 cells. […]

A3.01 cells = test: Cell number and cell viability in the HIVIIIB assay; type: cell-based, human
Method: FIG. 33. […] Cells were washed and incubated in complete medium at 5% CO2 and 37° C. for up to 10 days. […] B Concentration dependence of GSAO. […] Cells were washed, incubated in complete medium at 5% CO2 and 37° C. for 3 days and the conditioned medium collected and assayed for p24 antigen.
FIG. 34. Inhibition of HIVIIIB infection of A3.01 cells by GSAO.
A3.01 human T cells were exposed to GSAO for 30 minutes and then to HTLVIIIB virus for 2 hours after which the cells were washed and then cultured for up to 10 days. HTLVIIIB and A3.01 cells were obtained from the NIH AIDS Research and Reference Reagent Program, Rockville, Mass. Virus stocks were made and infectivity titer determined using A3.01 cells and the p24 antigen assay (Coulter, Miami, Fla.). A3.01 cells were cultured in RPMI medium containing 10% fetal calf serum. […] Cell numbers and cell viability were determined at the times specified by staining cells with trypan blue and counting using a Neubauer haemacytometer. Cell viability was measured as a percentage of live cells to total cells.

BAE cells = test: Tritiated GSAO in cytosol (membrane permeability); type: in vitro ADME, bovine; details: 50 μM GSAO, 1 hour
Method: (§1) Human T cells (A3.01) or adherent BAE cells were incubated with complete medium containing 50 μM GSAO and ˜100,000 counts per, minute of tritiated GSAO for 1 or 72 hours. Tritiated GSAO was prepared exactly as described for GSAO except that glycine-2-^3H-glutathione (NEN, Boston, Mass.) was used in place of cold glutathione. The cells were washed and lysed by two cycles of freezing and thawing. The cytosolic constituents were collected by differential centrifugation (Ausbel et al., 2000) and the tritiated GSAO was measured. Only 0.5% of the total tritiated GSAO was found in the T cell cytosol and 0.04% in the BAE cytosol after 1 hour. Moreover, only 4.5% of the GSAO penetrated the T cell membrane after 72 hours of culture.

Human T cells (A3.01) = test: Tritiated GSAO in cytosol (membrane permeability); type: in vitro ADME
Method: as §1

## N[C@@H](CCC(=O)N[C@@H](CSCC(=O)Nc1ccc([As](=O)(O)O)cc1)C(=O)NCC(=O)O)C(=O)O [GSAA, 4-(N-(S-glutathionylacetyl)amino)phenylarsonic acid, reference compound]
BVSM
  Viability IC50: no significant effect

## NC(CCC(=O)NC(CSCC(=O)Nc1ccc([As]=O)cc1)C(=O)NCC(=O)O)C(=O)O (centres unmarked) [GSAO, 4-(N-(S-glutathionylacetyl)amino)-phenylarsenoxide]
A3.01 cells; 10 μM in the culture medium
  effect on cell proliferation: small inhibitory effect on cell proliferation
  effect on cell viability: no effect on cell viability
A3.01 cells; up to 100 μM, pre-incubation only
  effect on cell proliferation or cell viability: no effect on cell proliferation or cell viability
BAE cells
  total tritiated GSAO found in the cytosol: 0.04%
Human T cells (A3.01); 50 μM GSAO, 1 hour
  total tritiated GSAO found in the cytosol: 0.5%
Human T cells (A3.01); 50 μM GSAO, 72 hours of culture
  GSAO that penetrated the T cell membrane: 4.5%
Human T cells (A3.01); A3.01 or BAE cells
  crossing of the plasma membrane: does not cross the plasma membrane to any significant extent
